Experimental data published in ChEMBL document CHEMBL1201862, “PubChem BioAssay data set” (2004).
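All cell lines were grown in 96-well plates and treated with compound for 48 hours. GI50: concentration for 50% inhibition of growth.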 Activity calls are given as the source filed them. Cut-off read from the data, not from the text of the source: active = GI50 up to about 1.1 µM and inactive = higher.

Tests used:
Test in all cases: DTP human tumour cell line panel, 48 h
SF-295 = tested on: SF-295
SNB-75 = tested on: SNB-75
RXF 393 = tested on: RXF 393
DMS-273 = tested on: DMS-273
HL-60 = tested on: HL-60
M14 = tested on: M14
M19-MEL = tested on: M19-MEL
OVCAR-5 = tested on: OVCAR-5
SNB-78 = tested on: SNB-78
LOX IMVI = tested on: LOX IMVI
RPMI-8226 = tested on: RPMI-8226
SW-620 = tested on: SW-620
LXFL 529 = tested on: LXFL 529
HCT-15 = tested on: HCT-15
OVCAR-4 = tested on: OVCAR-4
NCI-H23 = tested on: NCI-H23
HOP-18 = tested on: HOP-18
SK-MEL-28 = tested on: SK-MEL-28
MOLT-4 = tested on: MOLT-4
CCRF-CEM = tested on: CCRF-CEM
TK-10 = tested on: TK-10
SK-MEL-2 = tested on: SK-MEL-2
UACC-257 = tested on: UACC-257
SF-539 = tested on: SF-539
NCI-H226 = tested on: NCI-H226
HCC 2998 = tested on: HCC 2998
UO-31 = tested on: UO-31
XF498 = tested on: XF498
OVCAR-8 = tested on: OVCAR-8
EKVX = tested on: EKVX
UACC-62 = tested on: UACC-62
HOP-62 = tested on: HOP-62
SK-MEL-5 = tested on: SK-MEL-5
KM-20L2 = tested on: KM-20L2
SF-268 = tested on: SF-268
HT-29 = tested on: HT-29
COLO 205 = tested on: COLO 205
A549 = tested on: A549
KM12 = tested on: KM12
NCI-H460 = tested on: NCI-H460
SK-OV-3 = tested on: SK-OV-3
SNB-19 = tested on: SNB-19
U-251 = tested on: U-251
CAKI-1 = tested on: CAKI-1
SN12C = tested on: SN12C
DLD-1 = tested on: DLD-1
HOP-92 = tested on: HOP-92
SR = tested on: SR
786-0 = tested on: 786-0
NCI-H522 = tested on: NCI-H522
HCT-116 = tested on: HCT-116
Malme-3M = tested on: Malme-3M
OVCAR-3 = tested on: OVCAR-3
K562 = tested on: K562
ACHN = tested on: ACHN
IGROV-1 = tested on: IGROV-1
RXF 631 = tested on: RXF 631
A498 = tested on: A498
DMS-114 = tested on: DMS-114

Measured: GI50

COc1ccc(/C=N/N=C(\N)NO)cc1F
18.6 µM: HCT-15
inactive: SF-295 23 µM | SNB-75 27.4 µM | RXF 393 38.2 µM | DMS-273 17.5 µM | HL-60 27.4 µM | M14 14.2 µM | M19-MEL 21.6 µM | OVCAR-5 13.9 µM | SNB-78 97.3 µM | LOX IMVI 10.4 µM | RPMI-8226 28.4 µM | SW-620 41.2 µM | LXFL 529 11.6 µM | OVCAR-4 7.45 µM | NCI-H23 29.9 µM | HOP-18 13.8 µM | SK-MEL-28 > 100 µM | MOLT-4 31.1 µM | CCRF-CEM 33.7 µM | TK-10 43 µM | SK-MEL-2 13.3 µM | UACC-257 46.6 µM | SF-539 21.9 µM | NCI-H226 5.42 µM | HCC 2998 11.4 µM | UO-31 14 µM | XF498 25.3 µM | OVCAR-8 25.9 µM | EKVX 8.13 µM | UACC-62 12.9 µM | HOP-62 20.5 µM | SK-MEL-5 5.02 µM | KM-20L2 9.02 µM | SF-268 17.1 µM | HT-29 12.9 µM | COLO 205 10.5 µM | A549 14.3 µM | KM12 29.4 µM | NCI-H460 11.9 µM | SK-OV-3 24.5 µM | SNB-19 37.6 µM | U-251 25 µM | CAKI-1 14.5 µM | SN12C 26.7 µM | DLD-1 53.7 µM | HOP-92 22.2 µM | SR 15.9 µM | 786-0 13.7 µM | NCI-H522 22.1 µM | HCT-116 27 µM | Malme-3M 31 µM | OVCAR-3 53 µM | K562 8 µM | ACHN 10.1 µM | IGROV-1 31.3 µM | RXF 631 14.5 µM

CC1(C)C(=O)C(=Cc2ccco2)C1=O
> 100 µM: HCT-15
inactive: SF-295 > 100 µM | SNB-75 > 100 µM | HL-60 > 100 µM | M14 > 100 µM | M19-MEL > 100 µM | OVCAR-5 > 100 µM | SNB-78 > 100 µM | LOX IMVI > 100 µM | RPMI-8226 > 100 µM | SW-620 > 100 µM | LXFL 529 > 100 µM | OVCAR-4 > 100 µM | NCI-H23 > 100 µM | A498 > 100 µM | HOP-18 > 100 µM | SK-MEL-28 > 100 µM | MOLT-4 > 100 µM | CCRF-CEM > 100 µM | TK-10 > 100 µM | DMS-114 > 100 µM | SK-MEL-2 > 100 µM | UACC-257 > 100 µM | SF-539 > 100 µM | NCI-H226 > 100 µM | HCC 2998 > 100 µM | UO-31 > 100 µM | XF498 > 100 µM | OVCAR-8 > 100 µM | EKVX > 100 µM | UACC-62 > 100 µM | SK-MEL-5 > 100 µM | SF-268 > 100 µM | HT-29 > 100 µM | COLO 205 > 100 µM | A549 > 100 µM | KM12 > 100 µM | NCI-H460 > 100 µM | SK-OV-3 > 100 µM | U-251 > 100 µM | CAKI-1 > 100 µM | SN12C > 100 µM | DLD-1 > 100 µM | HOP-92 > 100 µM | SR > 100 µM | 786-0 > 100 µM | NCI-H522 > 100 µM | HCT-116 > 100 µM | Malme-3M > 100 µM | K562 > 100 µM | ACHN > 100 µM | IGROV-1 > 100 µM | RXF 631 > 100 µM

CC1CC[C@]2(C(=O)O)CCC3(C)C(=CCC4[C@@]5(C)CC[C@H](OS(=O)(=O)c6ccccc6)C(C)(C)C5CC[C@]43C)[C@@H]2[C@H]1C (stereo not given in full)
inactive: SF-295 > 100 µM | SNB-75 > 100 µM | DMS-273 > 100 µM | M14 > 100 µM | M19-MEL > 100 µM | OVCAR-5 > 100 µM | SNB-78 > 100 µM | LOX IMVI 83 µM | RPMI-8226 35 µM | SW-620 > 100 µM | LXFL 529 69.8 µM | OVCAR-4 > 100 µM | NCI-H23 52.7 µM | A498 > 100 µM | HOP-18 37.9 µM | SK-MEL-28 > 100 µM | MOLT-4 34.3 µM | CCRF-CEM 78 µM | TK-10 > 100 µM | DMS-114 39.2 µM | SK-MEL-2 48.9 µM | UACC-257 > 100 µM | SF-539 > 100 µM | NCI-H226 62.2 µM | HCC 2998 63.8 µM | UO-31 88.9 µM | XF498 36.4 µM | OVCAR-8 > 100 µM | EKVX 55.1 µM | UACC-62 > 100 µM | HOP-62 > 100 µM | SK-MEL-5 > 100 µM | SF-268 > 100 µM | HT-29 > 100 µM | COLO 205 38.1 µM | A549 36.6 µM | KM12 > 100 µM | NCI-H460 > 100 µM | SK-OV-3 > 100 µM | SNB-19 > 100 µM | U-251 83.2 µM | CAKI-1 > 100 µM | SN12C > 100 µM | DLD-1 82 µM | HOP-92 > 100 µM | SR 36.8 µM | 786-0 > 100 µM | NCI-H522 53.8 µM | HCT-116 27.2 µM | Malme-3M > 100 µM | OVCAR-3 > 100 µM | K562 51.4 µM | ACHN 52.2 µM | IGROV-1 > 100 µM | RXF 631 > 100 µM
